From US20210353784A1, “DETECTING AND TREATING CANCERS USING CELL PENETRANT MTP53-OLIGOMERIZATION-DOMAIN PEPTIDE” (priority 2020, published 2021)
Like-named read-outs stand apart in the source and are kept apart here.

Assays:
WHIM6 and WHIM25 tumors = test: SDS-PAGE Cy5 signal of protein extracts from WHIM6 and WHIM25 PDX tumors; type: in vivo, NSG mice; conditions: SDS-PAGE of tumor extracts
Experimental: 25 μg of proteins were run on 12% polyacrylamide gel and the Cy5p53Tet peptide accumulated in tumors was scanned at Cy5 channel and quantified. The intensity of Cy5p53Tet peptide was analyzed by ImageJ. p53 and MDM2 protein levels from the WHIM6 and WHIM25 tumors post-injection with Cy5p53Tet peptide at 1 hr, 2 hr and 3 hr were determined by Western blot analysis. 25 ug of proteins were load on 12% SDS-PAGE gel.
First, WHIM6/WHIM25 bilateral PDX tumor-bearing NSG mice were tail vein injected with 10 nmol of Cy5p53Tet peptide to study its delivery efficacy (FIG. 5A). Then, the WHIM6 and WHIM25 tumors were removed at 1, 2, and 3 hr post-injection. Uptake of the Cy5p53Tet peptide in WHIM6 and WHIM25 tumors was assessed on an in vivo epifluorecent imaging system (IVIS). […] The Cy5p53Tet peptide signal was investigated in PDX tumor tissue by extracting proteins from the WHIM6 and WHIM25 tumors post-injection with the Cy5p53Tet peptide at 1 hr, 2 hr, and 3 hr, and the Cy5p53Tet peptide effects were characterized in PDX models (FIG. 5B). Samples were run on 12% polyacrylamide gel and the Cy5p53Tet peptide accumulated in tumors was scanned at Cy5 channel and quantified. […] In addition, p53 and MDM2 protein levels were checked upon Cy5p53Tet peptide treatment in PDX tumors.

MDA-MB-468 cells = conditions: 500 nM, 24 h; mtp53 R273H
Experimental: (§1) Three independent experiments with biological replicates were performed for all ±SEM *p-value ≤0.05, **p-value ≤0.01, ***p-value ≤0.001.
(§2) Toxicity to normal cells and tissues represents an important barrier for drug delivery, and an advantage of cell penetrating peptide-based therapies is their low toxicity compared to most drug carriers. To evaluate the toxicity of Cy5p53Tet to breast cancer cells and normal breast mammary epithelial cells, the viability of cells was evaluated following peptide treatment (FIG. 1G).
(§3) Peptidecytotoxicity Assay. A total of 1.25×10^5 cells were seeded in a 12-well plate the day before and grown at 37° C. Cells were treated with 500 nM Cy5p53Tet for 24 h, and 0.1 mL MTT solution [5 mg mL^−1 (3-(4, 5-dimethylthiazolyl-2)-2, 5-diphenyltetrazolium bromide] was added to the cells and incubated at 37° C. for 1 h. The cells were then resuspended in 0.04 N hydrochloric acid diluted in isopropanol and incubated in the dark on a shaker for 5 min at room temperature. The absorbance was quantified at 550 nm, and the background absorbance was subtracted at 620 nm.

HCC70 = conditions: 500 nM, 24 h; mtp53 R248Q
Experimental: as §1, §2, §3

[1] = tested on: MDA-MB-468 cells compared to MCF7 cells; conditions: 2 h
Experimental: FlowJo software was used to analyze the cytometric data.
The cellular uptake of Cy5p53Tet in these two cell lines was also measured using flow cytometry.
In Vitro Cy5p53Tet Cellular Uptake by Flow Cytometry. Fluorescence-activated cell-sorting (FACS) was used to determine the cellular uptake of Cy5p53Tet. MCF7 and MDA-MB-468 cells were seeded in six-well plates at a density of 5×10^5 cells/well and incubated at 37° C. overnight. On the following day, media were replaced with fresh media containing vehicle control or 100 or 500 nM Cy5p53Tet and further incubated at 37° C. for 2 h. Cells were washed two times with PBS and trypsinized at 37° C. for 5 min. Trypsin was neutralized by adding media, and the cell suspension was spun down. Cell pellets were washed with PBS and resuspended in PBS. FACS was performed on a FACScan (BD Biosciences), processing 2×10^4 events for each sample.

MDA-MB-468.shp53 cells = test: Cy5p53Tet uptake in MDA-MB-468 shp53 cells with or without mtp53 depletion (live cell imaging); type: cell-based, Human; conditions: 500 nM
mtp53 = biological target: T1, mtp53 (Homo sapiens, UniProt P04637, R273H); test: Glutaraldehyde cross-link assay in MDA-MB-468 cell lysates; type: binding; conditions: in the presence of glutaraldehyde; cells treated 1.5 μM, 4 h; Cy5 channel
T1 construct: endogenous in cells; host or cells: MDA-MB-468
Description: FIG. 4D illustrates Cy5p53Tet treated with glutaraldehyde without MDA-MB-468 cell lysate.
Wtp53 can form a tetramer, and its oligomerization regulates its transcriptional activity. Tetramerization is important for both wtp53 and mtp53, as both are preferentially degraded by MDM2 when present as dimers rather than tetramers. The oligomerization states of mtp53 were examined and the interactions were investigated by Cy5p53Tet and mtp53 using glutaraldehyde (GA) cross-linking assays (FIG. 4A to FIG. 4D). MDA-MB-468 cells were treated with vehicle or 1.5 μM of Cy5p53Tet for 4 h. Whole-cell lysates were cross-linked with glutaraldehyde concentrations of 0, 0.0025, or 0.005%, and the samples were analyzed by Western blot to detect p53 oligomerization forms (FIG. 4A). In cells without glutaraldehyde, monomers of mtp53 were detected; at 0.0025% glutaraldehyde, monomers, dimers, and tetramers were visible; and at 0.005% glutaraldehyde, the predominant form was tetramers. The presence of Cy5p53Tet-containing mtp53 polypeptides was evaluated using the Cy5 channel (FIG. 4B). Cy5p53Tet was detected at a low molecular weight: <12 kDa in the absence of glutaraldehyde (FIG. 4B, lane 4). […] As a control, the glutaraldehyde cross-linking of Cy5p53Tet was examined without mtp53 and found no such signal (FIG. 4D). […]

mtp53 R273H = mtp53 R273H (Homo sapiens, UniProt P04637, R273H); test: Co-immunoprecipitation assay with purified mtp53 R273H; type: binding; conditions: anti-p53 antibody sample; molar ratio 1:1; not by normal IgG
Experimental: Anti-p53 DO1 antibody-coupled magnetic beads were used to pull down Cy5p53Tet/mtp53 complex, and normal mouse IgG-coupled magnetic beads were used as a control.
To experimentally determine if Cy5p53Tet binds to mtp53 R273H, a co-immunoprecipitation assay was performed using purified mtp53 mixed with Cy5p53Tet in a molar ratio of 1:1 (FIG. 3C). The co-immunoprecipitation was carried out using anti-p53 antibody or nonspecific IgG.
Co-immunoprecipitation Assay. Magnetic beads were used for co-immunoprecipitation assays, and 50 μL of the bead suspension was placed in each sample. The beads were washed twice with 1×PBS-0.1% Tween-20 by vortexing for 10 s. The beads were resuspended in 1×PBS-0.1% Tween-20 with either 1 μg of anti-p53 DO1 antibody or 1 μg of normal mouse IgG at a final volume of 100 μL. The tubes were incubated at room temperature for 10 min with continuous mixing. The beads were washed three times with 1×PBS-0.1% Tween-20, and 1 μg of purified mtp53 R273H and 100 ng of Cy5p53Tet peptide were incubated with the immobilized antibody at 4° C. for 150 min with constant rotation. Beads were pelleted and then washed with 1 mL 1×PBS-0.1% Tween-20 four times at room temperature. Bound proteins were eluted by incubating in 2×SDS Laemmli sample buffer containing 0.2 M DTT, heated at 95° C. for 10 min, and loaded on 15 or 10% polyacrylamide gel.

## H-CysCy5-RKKRRQRRGEYFTLQIRGRERFEMFRELNEALELK-OH (N-terminal Cy5; Synthetic peptide based on p53 protein) [Cy5p53Tet]
WHIM6 and WHIM25 tumors
  retention of Cy5p53Tet in mtp53 R273H WHIM25 versus wtp53 WHIM6: longer
MDA-MB-468 cells
  mitochondrial activity reduced by: 10.6%
HCC70
  mitochondrial activity reduced by: 13.6%
[1]; 100 nM
  geometric MFI, mtp53-expressing MDA-MB-468 cells vs MCF7 cells: 1.58 fold
[1]; 500 nM
  geometric MFI, mtp53-expressing MDA-MB-468 cells vs MCF7 cells: 1.65 fold
MDA-MB-468.shp53 cells; 30 min
  reduction of the Cy5p53Tet signal upon mtp53 depletion (relative ROI intensity): 61%
MDA-MB-468.shp53 cells; 2 h
  reduction of the Cy5p53Tet signal upon mtp53 depletion (relative ROI intensity): 63%
MDA-MB-468.shp53 cells; 4 h
  reduction of the Cy5p53Tet signal upon mtp53 depletion (relative ROI intensity): 67%
MDA-MB-468.shp53 cells; 24 h
  difference of Cy5p53Tet signal between knockdown and control cells: no statistically significant difference
mtp53
  molecular weight at which Cy5p53Tet was observed: > 225 kDa
mtp53 R273H
  pull-down of Cy5p53Tet with mtp53 R273H: significantly pulled down
